Eleven molecules from patent EP0178438A1, “Novel compounds” (BEECHAM GROUP PLC, priority 1984, dated 1986) can be followed below.

Each structure is given as a SMILES string.

For the test, the system named is acid secretion. Put plainly: perfused rat stomach preparation (anti-secretory response, pH of perfusate). Conditions: bolus intravenous injection, maximal reduction in hydrogen-ion concentration as percentage of control, carbachol or histamine stimulated, urethane anaesthetized rat; for inhibition in vivo at 1 µmol/kg: Dose 1 μmol/kg; for inhibition in vivo at 2 µmol/kg: Dose 2 μmol/kg; for inhibition in vivo at 2.5 µmol/kg: Dose 2.5 μmol/kg. Format: in vivo, male Wistar rats. How it is done:
The modified (1) perfused stomach preparation (2) ofthe urethane (25% solution) anaesthetized rat, maintained at 37 °C, allows the continuous measurement of pH during basal and stimulated acid secretion.
The lumen of the stomach of male Wistar rats (approximately 200 g bodyweight) was perfused, via a cannula designed to reduce the dead space of the stomach, with 5% glucose solution (37°C) at the rate of 3 ml/min. The perusate was forced over the surface of the secretory mucose only, the antrum being excluded. The effluent then passed over a microflow type glass pH electrode via a collecting funnel situated in the non-glandular forestomach.
The secretagogue carbachol or histamine was administered as a constant intravenous infusion to produce a stady rate of acid secretion. Test compounds were administered in solution as bolus intravenous injections and any effect on th pH of the perfusate noted. The perfusate Ph was recorded on a potentiometric recorder and anti-secretory responses were measure in terms of the maximal reduction in hydrogen-ion concentration expressed as a percentage of the 'control' concentrations.

Take `Cc1cnc(C[S+]([O-])c2nc3ccccc3[nH]2)c(C)c1N(C)C` (centres unmarked) [Example 2, 2-[ (4-Dimethylamino-3,5-dimethylpyrid-2-1)methylsulphinyl] benzimidazole]: the inhibition in vivo – broadly, the drop in the measured response relative to a control, in per cent – at 1 µmol/kg amounted to 37%.
`Cc1cnc(C[S+]([O-])c2nc3ccccc3[nH]2)c(C)c1N1CCCCC1` (centres unmarked) [Example 6b, 2-[(3,5-dimethyl-4-(piperid-1-yl)pyrid-2-yl)methylsulphinyl]benzimidazole]: the inhibition in vivo at 2 µmol/kg stood at 50%.
Regarding `Cc1cnc(C[S+]([O-])c2nc3ccccc3[nH]2)c(C)c1N1CCOCC1` (centres unmarked) [Example 8b, 2-[(3,5-dimethyl-4-morpholino-pyrid-2-yl)methylsulphinyl]benzimidazole], the inhibition in vivo at 0.5 µmol/kg (Dose 0.5 μmol/kg) was 72%.
`Cc1cnc(C[S+]([O-])c2nc3cc(Cl)ccc3[nH]2)c(C)c1N(C)C` (centres unmarked) [Example 11b, 5-Chloro-2-[(4-dimethylamino-3,5-dimethypyrid-2-yl)-methylsulphinyl]benzimidazole] returned an inhibition in vivo at 2 µmol/kg of 37%.
The molecule `Cc1cnc(C[S+]([O-])c2nc3ccc(Cl)cc3[nH]2)c(C)c1N1CCOCC1` (centres unmarked) [Example 14b, 5-Chloro-2-[(3,5-dimethyl-4-morpholinopyrid-2-yl)-methylsulphinyl]benzimidazole] registered an inhibition in vivo at 1 µmol/kg of 60%.
Take `Cc1c(N2CCOCC2)ccnc1C[S+]([O-])c1nc2ccccc2[nH]1` (centres unmarked) [Example 21b, 2-[(3-Methyl-4-morpholino-pyrid-2-yl)methylsulphinyl]-benzimidazole]: the inhibition in vivo at 2 µmol/kg worked out at 87%.
`Cc1cnc(C[S+]([O-])c2nc3ccccc3[nH]2)c(C)c1Nc1ccccc1` (centres unmarked) [Example 23b, 2-[(3,5-Dimethyl-4-N-anilino-pyrid-2-yl)methylsulphinyl]benzimidazole] returned an inhibition in vivo at 5 µmol/kg (Dose 5 μmol/kg) of 86%.
On to `Cc1c(N(C)c2ccccc2)ccnc1C[S+]([O-])c1nc2ccccc2[nH]1` (centres unmarked) [Example 24b], for which the inhibition in vivo at 2 µmol/kg is 100%.
Same read-out and setting: next, `Cc1c(C[S+]([O-])c2nc3ccccc3[nH]2)ncnc1N1CCCCC1` (centres unmarked) [Example 25b, 2-[(5-Methyl-4-(1-piperidinyl)-pyrimidin-6-yl)methylsulphinyl]benzimidazole]: 84%.
`Cc1c(C[S+]([O-])c2nc3ccccc3[nH]2)ncnc1N1CCOCC1` (centres unmarked) [Example 26b, 2-[(5-Methyl-4-morpholino-pyrimidin-6-yl)methylsulphinyl]benzimidazole] gave an inhibition in vivo at 2.5 µmol/kg of 84%.
Still for that read-out and setting: in the case of `Cc1c(C[S+]([O-])c2nc3ccccc3[nH]2)ncnc1N(C)C` (centres unmarked) [Example 27b, 2-[(5-Methyl-4-dimethylamino-pyrimidin-6-yl)methylsulphinyl]benzimidazole] it was 92%.
